In patent US20030161853A1, “Methylglycinediacetic acid and deribatives thereof useful as exfoliating agents” (L'OREAL, priority 2002, published 2003):

Test system: corneodesmosine
Experiment: Exfoliation test by measurement of the degradation of corneodesmosines (immunoblot of stratum corneum acetone powders, antibody G36-19, 46 kDa band)
Format: biochemical, human
Details: for % increase in the degradation of corneodesmosine: comparative chelating agents tested in the same manner as Example 1 (2% active ingredient, pH 8.0, 8 h at 34° C.); for Percentage increase in the degradation of corneodesmosine: aqueous solution containing 2% of active ingredient, pH 8.0, incubation 8 h at 34° C., relative to control without active ingredient
Excerpt: Exfoliation Test by Measurement of the Degradation of Corneodesmosines
This Example studies the capacity of trisodium methylglycine diacetate to promote exfoliation by the degradation of corneodesmosines.
Corneodesmosine is one of the majority markers of exfoliation in the corneodesmosome. It is studied by immunoblotting after separation by electrophoresis and transfer to a membrane. […] The murine monoclonal antibody G36-19 is specific for corneodesmosine; it belongs to a series of antibodies directed against epidermal differentiation antigens, produced after the immunization of a mouse with a human plantar horny layer homogenate, and then characterized (Serre G. et al, J. Invest. Dermatol. 1991, 97(6), 1061-72).
Varnish strippings are performed on the lower legs of volunteers (modification of the procedure of Lundström A. and Egelrud T., Acta Derm. Venereol. (stockh) 71, 471-474, 1991). The nylon-varnish leaves associated with the corneocytes are immersed in acetone (1 ml/cm^2) to detach the corneocytes. The mixture is filtered then rinsed three times with the same volume of acetone in order to remove all traces of varnish. Finally, the mixture is dried under vacuum:
acetone-containing powders of stratum corneum are thus obtained.
The acetone-containing powders are divided up into 1 mg aliquots. 100 μl of aqueous solutions containing 2% of active ingredient, adjusted to pH 8.0, are added. Controls without active ingredient are prepared under the same conditions. Two incubation times are studied: t=0 and t=8 h. In the latter case, incubation takes place at 34° C. with agitation.
After incubation, the mixtures are centrifuged for 10 min at 10,000 g. The supernatant is removed and replaced with 100 μl of Laemmli buffer (0.0625 M Tris/HCl pH 6.8, 2% SDS, 200 mM DTT, 10% glycerol) for extraction of the proteins. The mixture is boiled for 10 min at 100° C. and then ground in a Potter mill. The mixture is centrifuged for 10 min at 10,000 g and the supernatant is then collected. It contains the corneodesmosomal proteins.
The total proteins are assayed by Bradford's method (Biorad kit). This allows an adjustment of the samples to 0.6 mg/ml and a true comparison of the treatments. The samples together with a Rainbow low-molecular standard (Amersham Pharmacia Biotech), in a ratio of ⅓, are separated by electrophoresis on 12% acrylamide gel for ½ h at 100 V and then for 1 h at 200 V. After electrophoresis, the proteins are transferred to an Immobilon-P membrane (Millipore) for 3 h at 60 V. The membrane is then incubated for 2 times 15 min in TBS-TL buffer (Tris 25 mM, 0.15 M NaCl pH 7.2, 0.05% Tween 20, 0.5% skimmed milk powder) to block the non-specific sites. Incubation with the antibody G36-19, in a ratio of 1/12,500, is performed overnight at 4° C. After two rinses of 5 min in TBS-TL, the membrane is incubated with an IG(H+L) anti-mouse goat antibody/peroxidase conjugate (Biorad), in a ratio of 1/4000, for 1 h 30 min at room temperature. After several rinses of 5 min in TBS-TL and then TBS (without milk or Tween), the membrane is incubated for 1 min in 10 ml of ECL reagent (Amersham Pharmacia Biotech). The chemiluminescence of the corneodesmosine bands is measured with FluorS Multimager (Biorad). The 46 kDa band is quantified using the Quantity-one software (Biorad).
Glycine is used as a reference compound in this study, it having been shown in patent application EP-A2-0 852 949 (Shiseido) that glycine promotes the degradation of desmoglein (corneodesmosomal protein). […]

Compound | % increase in the degradation of corneodesmosine [%] | effect on the degradation of corneodesmosines (in words) (2% active ingredient, pH 8.0, 8 h at 34° C.) | Percentage increase in the degradation of corneodesmosine [%]
CCCCCCCCCCCC(=O)N(CCN(CC(=O)O)CC(=O)O)CC(=O)O [Lauroylethylenediaminetriacetic acid, lauroylethylenediaminetriacetic acid] | −80 | – | –
CC(C(=O)[O-])N(CC(=O)[O-])CC(=O)[O-].[Na+].[Na+].[Na+] (centres unmarked) [Trisodium methylglycine diacetate, trisodium methylglycine diacetate] | – | promotes the degradation of corneodesmosines | 59
NCC(=O)O [Glycine] | – | – | 30
N=C(CC(=O)[O-])C(=O)[O-].[Na+].[Na+] [Na iminosuccinate, sodium iminosuccinate] | −79 | – | –
